In BigSolDB 2.1:

O.O=c1c(O)c(-c2ccc(O)cc2)oc2cc(O)cc(O)c12
solubility (mole fraction)
Conditions | 283.15 K | 288.15 K | 293.15 K | 298.15 K | 303.15 K | 308.15 K | 313.15 K | 318.15 K | 318.25 K | 323.15 K
in ethanol | 0.00668 | 0.00812 | 0.00993 | 0.0121 | 0.0146 | 0.0178 | 0.0212 | 0.025 | – | 0.0295
in isopropanol | 0.00356 | 0.00502 | 0.00676 | 0.00907 | 0.0126 | 0.0171 | 0.0222 | – | 0.0281 | 0.036
in n-butanol | 0.00626 | 0.00772 | 0.00935 | 0.0113 | 0.0137 | 0.0164 | 0.0197 | 0.0236 | – | 0.028
in n-propanol | 0.00621 | 0.00727 | 0.00861 | 0.0103 | 0.0121 | 0.014 | 0.0162 | 0.0188 | – | 0.0217
in sec-butanol | 0.00599 | 0.00758 | 0.00926 | 0.0114 | 0.0138 | 0.0164 | 0.0196 | 0.0236 | – | 0.0285
